System: P. aeruginosa (ATCC27853)
Experiment: Anti-bacterial activity, inhibition zone diameter on agar
Type: cell-based, Pseudomonas aeruginosa
Conditions: LP4C 5, 10, 50, 100, 200 μg/mL
Protocol: P. aeruginosa (ATCC27853) was cultured in 3 mL LB culture medium, shaken at 220 rpm for 12 h at 37 °C and diluted to 1 × 10^6 CFU/mL. The culture disk was coated with 1% agar, and 100 μL bacterial suspension was added to the agar in the disk evenly. […] LP4C or reference antibiotics were then added in each hole. The disk was cultured for 12–16 h at 37 °C; the result was then observed and the inhibition zone diameter was measured.

N#CC1=C(N)Oc2c(c(=O)oc3ccccc23)C1c1cc(C(F)(F)F)cc(C(F)(F)F)c1 (stereo not shown) [LP4C]
growth inhibition / bactericidal activity (inhibition zone): no bactericidal activity
